Test results as given in US4065356A, “Production of antibiotic FR-02A (efrotomycin) by streptomyces lactamdurans” (priority 1977, dated 1977).
“Also recorded” adds a separate entry of the source.

Key:
[1] = tested on: Vibrio percolans; test: agar-diffusion bioassay using Vibrio percolans; type: cell-based; conditions: Comamonas terrigena; concentration of 200 μ/ml.; LH-20 product
Protocol: A 0.5 ml. solution of methanol containing 106 mg. of FR-02A obtained from Example 1 above is charged to a 75 ml. bed (1.25 cm. dia. × 56 cm. ht.) of Sephadex LH-20 gel in methanol (Pharmacia Fine Chemicals, Inc., Piscataway, N.J.). The column is developed with methanol. […] Fractions are bioassayed at a 1-10 dilution with 1/2 dia. paper discs on agar-diffusion assay plates seeded with Vibrio percolans. Zones of inhibition are obtained corresponding to the third mass peak (KD = 0.3) detected. The fractions corresponding to the third mass peak are combined and evaporated to yield 43 mg. of FR-02A.
The product when assayed in the above agar-diffusion bioassay using Vibrio percolans gives a 16 mm. zone of inhibition at a concentration of 200 μ/ml. The U.V. absorption in pH 7.0 phosphate buffer was: […]

[2] = tested on: Bacillus subtilis (MB 797); test: in vitro activity; type: cell-based
[3] = tested on: PPLO; test: PPLO in chickens; type: in vivo
[4] = tested on: Ps. stutzeri 1231; test: Antibiotic Spectrum Profile, agar diffusion test; type: cell-based; conditions: Stutzerimonas stutzeri, 1 mg./ml., read-out: Diameters of Inhibition Zones
[5] = tested on: Staphylococcus aureus 108; test: Antibiotic Spectrum Profile, agar diffusion test; type: cell-based; conditions: 1 mg./ml., read-out: Diameters of Inhibition Zones
[6] = tested on: PPLO; test: PPLO in pigs; type: in vivo
[7] = growth promotion in animals; type: in vivo, animals such as chickens, sheep and cattle; conditions: feed additive
[8] = tested on: Salmonella gallinarum 1287; test: Antibiotic Spectrum Profile, agar diffusion test; type: cell-based; conditions: Salmonella enterica, 1 mg./ml., read-out: Diameters of Inhibition Zones
[9] = tested on: Corynebacterium pseudodiphtheriticum 261; test: Antibiotic Spectrum Profile, agar diffusion test; type: cell-based; conditions: 1 mg./ml., read-out: Diameters of Inhibition Zones
[10] = tested on: Erwinia auroseptica 1159; test: Antibiotic Spectrum Profile, agar diffusion test; type: cell-based; conditions: 1 mg./ml., read-out: Diameters of Inhibition Zones
[11] = tested on: Staphylococcus aureus (MB 108); test: in vitro activity; type: cell-based
[12] = tested on: M. arthritidis; test: in vitro activity; type: cell-based
[13] = tested on: M. gallisepticum; test: in vitro activity; type: cell-based
[14] = tested on: Aerobacter aerogenes 835; test: Antibiotic Spectrum Profile, agar diffusion test; type: cell-based; conditions: Klebsiella aerogenes, 1 mg./ml., read-out: Diameters of Inhibition Zones
[15] = tested on: E. coli 60; test: Antibiotic Spectrum Profile, agar diffusion test; type: cell-based; conditions: Escherichia coli, 1 mg./ml., read-out: Diameters of Inhibition Zones
[16] = tested on: Pseudomonas stutzeri (MB 2765); test: in vitro activity; type: cell-based
[17] = tested on: S. aureus (res. Erythromycin) 1909; test: Antibiotic Spectrum Profile, agar diffusion test; type: cell-based; conditions: Staphylococcus aureus, 1 mg./ml., read-out: Diameters of Inhibition Zones
[18] = tested on: Bordetella bronchiseptica; test: systemic infections produced by Bordetella bronchiseptica in mice; type: in vivo; conditions: orally
[19] = tested on: Proteus vulgaris; test: in vivo test in mice, Proteus vulgaris infection; conditions: infection IP, therapy IP, at time of infection and 6 hours later
Protocol: *Values in the table are expressed in mg./mouse. Both infections and
therapeutic doses of FR-02A were administered intraperitoneally. FR-02A
was administered at time of infection and again 6 hours later.

[20] = tested on: Sarcina lutea 1101; test: Antibiotic Spectrum Profile, agar diffusion test; type: cell-based; conditions: Micrococcus luteus, 1 mg./ml., read-out: Diameters of Inhibition Zones
[21] = tested on: Klebsiella pneumoniae (MB 1264); test: in vitro activity; type: cell-based
[22] = tested on: Pseudomonas aeruginosa (MB 3210); test: in vitro activity; type: cell-based
[23] = tested on: Streptococcus pyogenes; test: in vitro activity; type: cell-based
[24] = tested on: Xanthomonas vesicatoria 815; test: Antibiotic Spectrum Profile, agar diffusion test; type: cell-based; conditions: 1 mg./ml., read-out: Diameters of Inhibition Zones
[25] = tested on: Escherichia coli 1418; test: Antibiotic Spectrum Profile, agar diffusion test; type: cell-based; conditions: 1 mg./ml., read-out: Diameters of Inhibition Zones
[26] = tested on: Streptococcusagalactiae; test: in vitro activity; type: cell-based
[27] = tested on: species of Mycoplasma; test: activity against Mycoplasma; type: cell-based
[28] = stability to handling; type: physicochemical; conditions: pale yellow solid
[29] = tested on: PPLO; test: PPLO in cattle; type: in vivo
[30] = tested on: E. coli (MB 1418); test: in vitro activity; type: cell-based
[31] = tested on: Klebsiella pneumoniae 1264; test: Antibiotic Spectrum Profile, agar diffusion test; type: cell-based; conditions: 1 mg./ml., read-out: Diameters of Inhibition Zones
[32] = solubility; type: physicochemical; conditions: water-immiscible organic solvents
[33] = tested on: S. aureus 3032; test: Antibiotic Spectrum Profile, agar diffusion test; type: cell-based; conditions: Staphylococcus aureus, 1 mg./ml., read-out: Diameters of Inhibition Zones
[34] = tested on: Proteus vulgaris; test: in vitro activity; type: cell-based
[35] = tested on: coccidia; test: chicken coccidiosis; type: in vivo; conditions: most prevalent types
[36] = tested on: M. synoviae; test: in vitro activity; type: cell-based
[37] = tested on: Bacillus subtilis (MB 964); test: in vitro activity; type: cell-based
[38] = tested on: Alcaligenes faecalis 10; test: Antibiotic Spectrum Profile, agar diffusion test; type: cell-based; conditions: 1 mg./ml., read-out: Diameters of Inhibition Zones
[39] = tested on: gram-negative bacteria; test: antibacterial activity; type: cell-based
[40] = tested on: Staphylococcus aureus (MB 703); test: in vitro activity; type: cell-based
[41] = tested on: M. gallisepticum; test: M. gallisepticum air sacculitis in broilers; type: in vivo
[42] = tested on: Streptococcus faecum; test: in vitro activity; type: cell-based

## CC=CC=CC1OC(O)(C(CC)C(=O)NCC=CC=C(C)C(OC)C(C)C2OC(C=CC=CC=C(C)C(=O)c3c(O)ccn(C)c3=O)C(O)C2O)C(O)C(OC2OC(C)C(OC3OC(C)C(OC)C(O)C3OC)C(OC)C2O)C1(C)C (stereo not shown) [FR-02A, efrotomycin]
[1]
  zone of inhibition at 200 µg/mL: 16 mm
[2]
  activity: Activity was also found
[3]
  efficacy against PPLO: effective
[4]
  zone of inhibition at 1000 µg/mL: 10 mm
[5]
  zone of inhibition at 1000 µg/mL: 11 mm
[6]
  efficacy against PPLO: effective
[7]
  growth promotion: shortens the time required for bringing animals up to marketable weight
[8]
  zone of inhibition at 1000 µg/mL: 13 mm
[9]
  zone of inhibition at 1000 µg/mL: 27 mm
[10]
  zone of inhibition at 1000 µg/mL: 12 mm
[11]
  activity: Activity was also found
[12]
  in vitro activity: effective
[13]
  in vitro activity: effective
[14]
  zone of inhibition at 1000 µg/mL: 13 mm
[15]
  zone of inhibition at 1000 µg/mL: 10 mm
[16]
  activity: Activity was also found
[17]
  zone of inhibition at 1000 µg/mL: 16 mm
[18]
  efficacy in systemic infections produced by Bordetella bronchiseptica: orally effective
[19]
  ED50: 1.73 mg./mouse
[20]
  zone of inhibition at 1000 µg/mL: 28 mm
[21]
  activity: Activity was also found
[22]
  activity: Activity was also found
[23]
  in vitro activity: effective
[24]
  zone of inhibition at 1000 µg/mL: 13 mm
[25]
  zone of inhibition at 1000 µg/mL: 15 mm
[26]
  in vitro activity: effective
[27]
  activity against species of Mycoplasma: shows activity
[28]
  stability to normal handling: stable to normal handling
[29]
  efficacy against PPLO: effective
[30]
  activity: Activity was also found
[31]
  zone of inhibition at 1000 µg/mL: 16 mm
[32]
  solubility in water-immiscible organic solvents: highly soluble
[33]
  zone of inhibition at 1000 µg/mL: 12 mm
[34]
  in vitro activity: effective
[35]
  efficacy against chicken coccidiosis: effective
[36]
  in vitro activity: effective
[37]
  activity: Activity was also found
[38]
  zone of inhibition at 1000 µg/mL: 19 mm
[39]
  activity against gram-negative bacteria: shows activity; also recorded: effective
[40]
  activity: Activity was also found
[41]; Mycoplasmoides gallisepticum, air sacculitis in broilers
  ED50: 40 to 100 mg/kg
[41]; subcutaneously, broilers
  efficacy against M. gallisepticum air sacculitis: efficacious
[42]
  in vitro activity: effective
